Measured values published in patent US20210214359A1, “Compounds and Methods for Treating Bacterial Infections” (NEW YORK UNIVERSITY, priority 2018, published 2021).

Columns and labels:
S. aureus RN4220 = experiment: growth inhibition assay in liquid culture, potentiation of gentamicin (Gm); type: cell-based; conditions: compound at 0.375 μg/mL
Text: The compounds of the invention were screened in a growth inhibition assay in liquid culture of nonpathogenic S. aureus RN4220 to directly test whether a hit compound can potentiate the action of gentamicin (Gm) added at ≤10% the minimal inhibitory concentration (MIC). Gentamicin is a ribosome-targeting bactericidal antibiotic induces oxidative stress and is effective against MRSA strains. Although gentamicin is not a first-line antibiotic for monotherapy of staphylococcal infection, it is used in combination with vancomycin or β-lactams to treat serious infections, such as endocarditis.
The MIC results for the remaining compounds of the disclosure are provided in Table 2. % MIC activity of 51-100 is labeled “+”, % MIC activity of 21-50 is labeled “++”, and % MIC activity of ≤20 is labeled “+++”.

HeLa cells = experiment: cytotoxicity in HeLa cells using a different assay; type: cell-based
human BJ cell line = experiment: IncuCyte Cytotoxicity Assay; type: cell-based
Method: To determine toxicity of the compounds of the disclosure, an IncuCyte™ Cytotoxicity Assay (Essen BioScience) in the human BJ cell line was conducted. Cell cultures were supplemented with a chemical probe which entered the cell and labeled nuclei green fluorescence as cells die and membrane integrity is lost. Nuclei of live cells were labeled with red fluorescence. […] This cytotoxic concentration was over 50-fold higher than the optimal concentration of the compound of Ex. 80 for bacterial growth inhibition in liquid culture in combination with 10% MIC of gentamicin. Therefore, the compounds of the disclosure show low cytotoxicity in human cell lines and present desirable targets for the development of compositions for treating bacterial infections.

[1] = tested on: vancomycin-resistant RN10659 strain; experiment: growth inhibition test in combination with vancomycin; type: cell-based, S. aureus; conditions: for bacterial growth, agent alone: single agent
Method: (§1) FIG. 3 illustrates inhibition of culture growth of drug-resistant S. aureus by (A) the compound of Ex. 80 (GO-0001197; labeled as #9077) (30 μM) and 50% MIC of methicillin (Met) in methicillin-resistant USA300 strain; or by (B) the compound of Ex. 80 (30 μM) and 50% MIC of vancomycin (Van) in vancomycin-resistant RN10659 strain.
(§2) Because H2S inhibitors dramatically reduce the effective dose of antibiotics, they may potentiate or augment the activity of antibiotics in the strains that acquired resistance to these antibiotics. The compound of Ex. 80 (GO-0001197) was evaluated with two clinically relevant antibiotics, methicillin and vancomycin, which have different mechanisms of resistance.

[2] = tested on: methicillin-resistant USA300 strain; experiment: growth inhibition test in combination with methicillin; type: cell-based, S. aureus; conditions: for bacterial growth, agent alone: single agent
Method: as §1, §2

S. aureus CSE [3] = target: T1, S. aureus CSE (Staphylococcus aureus, UniProt A0A0H3K724); experiment: H2S produced by purified CSE in vitro; type: biochemical; conditions: read-out: IC50, reduction of enzymatic activity (H2S produced by purified CSE)
Method: (§3) The amount of H2S produced by purified CSE was measured in the presence of the compound of Ex. 80 and found strong reduction of enzymatic activity with IC50 about 100 nM (FIG. 2B). This IC50 values are 10- to 400-fold lower than those determined for conventional CSE inhibitors and correlates well with its binding affinity, KD, as determined by MicroScale Thermophoresis (MST) (FIG. 2C).

S. aureus CSE [4] = target: T1, S. aureus CSE; experiment: binding to CSE by MicroScale Thermophoresis (MST)
Method: as §3

T1 sequence (A0A0H3K724 entry or part of it): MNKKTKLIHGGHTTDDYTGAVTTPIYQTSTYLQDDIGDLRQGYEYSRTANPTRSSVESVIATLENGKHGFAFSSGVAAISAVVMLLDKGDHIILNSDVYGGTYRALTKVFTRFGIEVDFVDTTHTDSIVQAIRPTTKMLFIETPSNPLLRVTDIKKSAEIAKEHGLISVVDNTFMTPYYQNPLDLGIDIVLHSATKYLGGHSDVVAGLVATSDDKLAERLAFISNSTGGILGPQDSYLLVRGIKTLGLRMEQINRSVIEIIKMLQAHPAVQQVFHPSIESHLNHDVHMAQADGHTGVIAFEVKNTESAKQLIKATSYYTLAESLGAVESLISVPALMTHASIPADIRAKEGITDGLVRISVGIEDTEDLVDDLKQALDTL

SMILES: O=C(O)c1cc(Cn2ccc3ccc(-c4cc5cccc(Cl)c5s4)cc32)[nH]n1 [Example 68, 5-{[6-(7-chloro-1-benzothiophen-2-yl)-1H-indol-1-yl]methyl}-1H-pyrazole-3-carboxylic acid]
- % MIC at 0.375 μg/mL (S. aureus RN4220): 10 (% MIC at 0.375 μg/mL)

SMILES: O=C(O)CNC(=O)Cn1ccc2ccc(Br)cc21 [Example 80, (2-(6-bromo-1H-indol-1-yl)acetyl)glycine]
- cytotoxic concentration (HeLa cells): ~400 µM
- concentration at which more than a half of the cells died (human BJ cell line; human): 1,250 μM
- concentration at which practically all cells died (human BJ cell line; human): 2,500 μM
- concentration at which the compound becomes toxic to cells (conservative estimation) (human BJ cell line; human): ~500 µM
- concentration at which the number of dead cells started to increase (human BJ cell line; human): 625 µM
- cytotoxic concentration fold higher than optimal concentration for bacterial growth inhibition (human BJ cell line; versus liquid culture with 10% MIC of gentamicin): over 50 fold
- bacterial growth in co-treatment with vancomycin ([1]; Ex. 80 10 μg/mL + vancomycin 2 μg/mL): inhibition of bacterial growth
- bacterial growth, agent alone [1]: did not affect bacterial growth
- bacterial growth in co-treatment with methicillin ([2]; Ex. 80 10 μg/mL + methicillin 5 μg/mL): inhibition of bacterial growth
- bacterial growth, agent alone [2]: did not affect bacterial growth
- IC50 (S. aureus CSE [3]): ~0.1 µM

SMILES: C#CCC(N)C(=O)O (stereo not shown) [PAG, propargylglycine]
- Kd (S. aureus CSE [4]): ~90 µM
- fold higher KD than Ex. 80 (S. aureus CSE [4]; MST, CSE): 225 fold

SMILES: COc1cccc(OC)c1C(=O)N[C@@H]1C(=O)N2[C@@H]1SC(C)(C)[C@@H]2C(=O)O [methicillin, reference compound]
- bacterial growth, agent alone [2]: only slowed down growth

SMILES: CN[C@H](CC(C)C)C(=O)N[C@H]1C(=O)N[C@@H](CC(N)=O)C(=O)N[C@H]2C(=O)N[C@H]3C(=O)N[C@H](C(=O)N[C@H](C(=O)O)c4cc(O)cc(O)c4-c4cc3ccc4O)[C@H](O)c3ccc(c(Cl)c3)Oc3cc2cc(c3O[C@@H]2O[C@H](CO)[C@@H](O)[C@H](O)[C@H]2O[C@H]2C[C@](C)(N)[C@H](O)[C@H](C)O2)Oc2ccc(cc2Cl)[C@H]1O [vancomycin, reference compound]
- bacterial growth, agent alone [1]: only slowed down growth
